Data on 28 compounds can be found in patent US20260028365A1 (BIOGEN MA INC., priority 2022, published 2026).

Molecules are shown by their SMILES. Some results are limits rather than exact numbers.

One assay has as its target Tyk2 (Homo sapiens (Human), UniProt P29597). Briefly: pSTAT4 Cell Assay (MSD, NK92 cells). In kind it is cell-based. The conditions noted are these: MSD.
For a further assay, the target named is JH2 domain of human Tyk2 (Homo sapiens (Human), UniProt P29597). Briefly: JH2 Biochemical Assay (TR-FRET probe displacement). In kind it is binding. A general note: Time-resolved FRET reads energy transfer from a long-lived donor to a nearby acceptor.
JH2 domain of human Tyk2, sequence (P29597 575-876): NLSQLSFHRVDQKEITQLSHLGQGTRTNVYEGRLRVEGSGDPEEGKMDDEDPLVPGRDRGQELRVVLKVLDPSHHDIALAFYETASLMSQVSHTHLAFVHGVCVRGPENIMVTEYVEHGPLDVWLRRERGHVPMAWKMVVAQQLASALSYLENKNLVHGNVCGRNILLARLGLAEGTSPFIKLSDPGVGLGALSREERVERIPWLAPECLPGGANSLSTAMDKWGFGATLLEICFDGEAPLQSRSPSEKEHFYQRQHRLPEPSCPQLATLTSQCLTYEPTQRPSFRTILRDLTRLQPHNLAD
The mark [1] stands for this setting: JH2 domain of human Tyk2, TR-FRET probe displacement.
The mark [2] stands for this setting: TR-FRET probe displacement, JH2 domain of human Tyk2.

Tyk2, sequence (P29597 whole entry, the tested form may be a part): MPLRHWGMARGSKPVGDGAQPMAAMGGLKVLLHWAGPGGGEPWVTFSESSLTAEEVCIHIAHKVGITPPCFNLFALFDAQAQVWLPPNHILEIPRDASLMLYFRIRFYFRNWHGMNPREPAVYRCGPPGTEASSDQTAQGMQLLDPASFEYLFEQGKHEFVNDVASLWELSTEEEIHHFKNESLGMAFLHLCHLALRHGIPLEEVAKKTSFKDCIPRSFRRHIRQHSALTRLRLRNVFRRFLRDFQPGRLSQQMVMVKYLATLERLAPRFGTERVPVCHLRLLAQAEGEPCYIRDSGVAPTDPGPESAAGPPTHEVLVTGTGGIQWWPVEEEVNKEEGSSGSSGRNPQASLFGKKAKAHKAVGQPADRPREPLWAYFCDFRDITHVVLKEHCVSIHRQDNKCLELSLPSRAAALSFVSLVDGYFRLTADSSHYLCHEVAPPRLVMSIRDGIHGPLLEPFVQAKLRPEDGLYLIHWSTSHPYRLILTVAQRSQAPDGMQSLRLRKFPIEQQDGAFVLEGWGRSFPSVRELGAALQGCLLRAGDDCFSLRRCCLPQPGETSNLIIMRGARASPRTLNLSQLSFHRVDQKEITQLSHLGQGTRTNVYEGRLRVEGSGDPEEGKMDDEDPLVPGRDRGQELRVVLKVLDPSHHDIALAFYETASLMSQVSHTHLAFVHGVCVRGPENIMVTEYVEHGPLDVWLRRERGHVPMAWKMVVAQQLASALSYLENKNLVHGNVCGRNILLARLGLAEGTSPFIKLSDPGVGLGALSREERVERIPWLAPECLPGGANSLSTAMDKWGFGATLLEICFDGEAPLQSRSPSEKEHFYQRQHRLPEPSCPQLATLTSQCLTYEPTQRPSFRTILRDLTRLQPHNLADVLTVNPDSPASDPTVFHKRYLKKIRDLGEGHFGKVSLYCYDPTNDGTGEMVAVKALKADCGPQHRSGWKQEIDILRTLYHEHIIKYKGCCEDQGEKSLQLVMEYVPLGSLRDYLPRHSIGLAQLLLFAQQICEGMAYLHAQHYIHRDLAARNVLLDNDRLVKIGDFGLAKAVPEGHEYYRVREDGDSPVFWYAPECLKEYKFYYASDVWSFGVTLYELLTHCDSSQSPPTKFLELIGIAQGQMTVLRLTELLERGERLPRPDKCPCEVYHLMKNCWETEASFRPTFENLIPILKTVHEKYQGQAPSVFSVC

Regarding `CC(=O)Nc1cc(Nc2cc(C)nc(C(C)(F)F)n2)c(-c2cccc([C@@H]3CN(C)CCO3)n2)cn1` (single isomer, unassigned) [Example 641, (S)-N-(4′-((2-(1,1-difluoroethyl)-6-methylpyrimidin-4-yl)amino)-6-(4-methylmorpholin-2-yl)-[2,3′-bipyridin]-6′-yl)acetamide or (R)-N-(4′-((2-(1,1-difluoroethyl)-6-methylpyrimidin-4-yl)amino)-6-(4-methylmorpholin-2-yl)-[2,3′-bipyridin]-6′-yl)acetamide], the IC50 at Tyk2 and on JH2 domain of human Tyk2 (setting [1]) was at most 10 nM throughout.
`CC(=O)Nc1cc(Nc2cc(C)nc(C(C)(F)F)n2)c(-c2ccc([C@@H]3CN(C)CCO3)cn2)cn1` (single isomer, unassigned) [Example 643, (R)-N-(4′-((2-(1,1-difluoroethyl)-6-methylpyrimidin-4-yl)amino)-5-(4-methylmorpholin-2-yl)-[2,3′-bipyridin]-6′-yl)acetamide or (S)-N-(4′-((2-(1,1-difluoroethyl)-6-methylpyrimidin-4-yl)amino)-5-(4-methylmorpholin-2-yl)-[2,3′-bipyridin]-6′-yl)acetamide]: the IC50 on Tyk2 and at JH2 domain of human Tyk2 (setting [1]) was at most 10 nM throughout.
As for `CC(=O)Nc1cc(Nc2cc(C)nc(C(C)(F)F)n2)c(-c2ccc([C@H]3CN(C)CCO3)cn2)cn1` (single isomer, unassigned) [Example 644, (S)-N-(4′-((2-(1,1-difluoroethyl)-6-methylpyrimidin-4-yl)amino)-5-(4-methylmorpholin-2-yl)-[2,3′-bipyridin]-6′-yl)acetamide or (R)-N-(4′-((2-(1,1-difluoroethyl)-6-methylpyrimidin-4-yl)amino)-5-(4-methylmorpholin-2-yl)-[2,3′-bipyridin]-6′-yl)acetamide], the IC50 against Tyk2 and on JH2 domain of human Tyk2 (setting [1]) was at most 10 nM each time.
For the compound `CC(=O)Nc1cc(Nc2cc(C)nc(C(C)(F)F)n2)c(OC[C@H]2CCC[C@@H](C)O2)cn1` (stereo in doubt) [Example 418, Cis-rac-N-(4-((2-(1,1-difluoroethyl)-6-methylpyrimidin-4-yl)amino)-5-(((2R,6R)-6-methyltetrahydro-2H-pyran-2-yl)methoxy)pyridin-2-yl)acetamide], the IC50 against Tyk2 and at JH2 domain of human Tyk2 (setting [1]) was at most 10 nM throughout.
`CC(=O)Nc1cc(Nc2cc(C)nc(C(C)(F)F)n2)c(OC[C@@H]2CCC[C@H](C)O2)cn1` (stereo in doubt) [Example 442, Cis-rac-N-(4-((2-(1,1-difluoroethyl)-6-methylpyrimidin-4-yl)amino)-5-((6-methyltetrahydro-2H-pyran-2-yl)methoxy)pyridin-2-yl)acetamide]: the IC50 on Tyk2 and on JH2 domain of human Tyk2 (setting [1]) was 10 to 100 nM throughout.
As for `CCOc1cnc(NC(C)=O)cc1Nc1cc(C(C)(F)F)ccn1` [Example 2, N-(4-((4-(1,1-difluoroethyl)pyridin-2-yl)amino)-5-ethoxypyridin-2-yl)acetamide], the IC50 (in general, the midpoint of a concentration-inhibition curve) on Tyk2 was at least 1000 nM; at JH2 domain of human Tyk2 (setting [2]), 10 to 100 nM.
Consider `CC(=O)Nc1cc(Nc2ccnc(C(C)(F)F)n2)c(OC(C)C)cn1` [Example 8, N-(4-((2-(1,1-difluoroethyl)pyrimidin-4-yl)amino)-5-isopropoxypyridin-2-yl)acetamide], for which the values for the 50% inhibitory concentration (IC50) against Tyk2 and at JH2 domain of human Tyk2 (setting [2]) were 100 to 1000 nM and at most 10 nM, respectively.
In the same order, the values of `CCOc1cnc(NC(=O)CC)cc1Nc1cc(C)nc(C(C)(F)F)n1` [Example 9, N-(4-((2-(1,1-difluoroethyl)-6-methylpyrimidin-4-yl)amino)-5-ethoxypyridin-2-yl)propionamide] are 10 to 100 nM and at most 10 nM.
In the same order, the values of `CCOc1cnc(NC(C)=O)cc1Nc1cc(O[C@H]2C[C@@H](OC)C2)cc(C(C)(F)F)n1` [Example 15, N-(4-((6-(1,1-difluoroethyl)-4-((1s,3s)-3-methoxycyclobutoxy)pyridin-2-yl)amino)-5-ethoxypyridin-2-yl)acetamide] are 10 to 100 nM and at most 10 nM.
Turning to `COc1cc(Nc2cc(NC(C)=O)ncc2OC)nc(C(C)(F)F)n1` [Example 18, N-(4-((2-(1,1-difluoroethyl)-6-methoxypyrimidin-4-yl)amino)-5-methoxypyridin-2-yl)acetamide], the IC50 was 10 to 100 nM against Tyk2 and at most 10 nM at JH2 domain of human Tyk2 (setting [2]).
In the case of `CC(=O)Nc1cc(Nc2cc(C)nc(C(C)(F)F)n2)c(OCC(F)(F)F)cn1` [Example 23, N-(4-((2-(1,1-difluoroethyl)-6-methylpyrimidin-4-yl)amino)-5-(2,2,2-trifluoroethoxy)pyridin-2-yl)acetamide], the IC50 against Tyk2 was 100 to 1000 nM; on JH2 domain of human Tyk2 (setting [2]) it was at most 10 nM.
For the compound `CC(=O)Nc1cc(Nc2cc(C)nc(C(C)(F)F)n2)c(OCC(F)F)cn1` [Example 24, N-(5-(2,2-difluoroethoxy)-4-((2-(1,1-difluoroethyl)-6-methylpyrimidin-4-yl)amino)pyridin-2-yl)acetamide], the values for the 50% inhibitory concentration (IC50) against Tyk2 and at JH2 domain of human Tyk2 (setting [2]) were 10 to 100 nM and at most 10 nM, respectively.
For the compound `CC(=O)Nc1cc(Nc2cc(C)nc(C(C)(F)F)n2)c(OCCN(C)C)cn1` [Example 25, N-(4-((2-(1,1-difluoroethyl)-6-methylpyrimidin-4-yl)amino)-5-(2-(dimethylamino)ethoxy)pyridin-2-yl)acetamide], the IC50 was 10 to 100 nM against Tyk2 and at most 10 nM on JH2 domain of human Tyk2 (setting [2]).
In the same order, the values of `CCOc1cnc(NC(=O)COC)cc1Nc1cc(C)nc(C(C)(F)F)n1` [Example 26, N-(4-((2-(1,1-difluoroethyl)-6-methylpyrimidin-4-yl)amino)-5-ethoxypyridin-2-yl)-2-methoxyacetamide] are 10 to 100 nM and at most 10 nM.
On the same counts, the results for `CCOc1cnc(NC(=O)CCOC)cc1Nc1cc(C)nc(C(C)(F)F)n1` [Example 27, N-(4-((2-(1,1-difluoroethyl)-6-methylpyrimidin-4-yl)amino)-5-ethoxypyridin-2-yl)-3-methoxypropanamide] are 100 to 1000 nM and at most 10 nM.
On the same counts, the results for `CC(=O)Nc1cc(Nc2cc(C)nc(C(C)(F)F)n2)c(OCc2ccccc2)cn1` [Example 30, N-(5-(benzyloxy)-4-((2-(1,1-difluoroethyl)-6-methylpyrimidin-4-yl)amino)pyridin-2-yl)acetamide] are at most 10 nM and at most 10 nM.
`CCOc1cnc(NC(C)=O)cc1Nc1ccnc(C(C)(C)F)n1` [Example 31, N-(5-ethoxy-4-((2-(2-fluoropropan-2-yl)pyrimidin-4-yl)amino)pyridin-2-yl)acetamide]: the values for the IC50 against Tyk2 and on JH2 domain of human Tyk2 (setting [2]) were 10 to 100 nM and at most 10 nM, respectively.
In the same order, the values of `CCOc1cnc(NC(C)=O)cc1Nc1nc(C(C)(F)F)ncc1F` [Example 34, N-(4-((2-(1,1-difluoroethyl)-5-fluoropyrimidin-4-yl)amino)-5-ethoxypyridin-2-yl)acetamide] are at least 1000 nM and 10 to 100 nM.
With `CCOc1cnc(NC(C)=O)cc1Nc1nc(C(C)(F)F)nc(C)c1F` [Example 35, N-(4-((2-(1,1-difluoroethyl)-5-fluoro-6-methylpyrimidin-4-yl)amino)-5-ethoxypyridin-2-yl)acetamide], the values for the IC50 against Tyk2 and on JH2 domain of human Tyk2 (setting [2]) were 100 to 1000 nM and at most 10 nM, respectively.
`CC(=O)Nc1cc(Nc2ccnc(C(C)(F)F)n2)c(OC2CC2)cn1` [Example 38, N-(5-cyclopropoxy-4-((2-(1,1-difluoroethyl)pyrimidin-4-yl)amino)pyridin-2-yl)acetamide]: the figures for the IC50 against Tyk2 and at JH2 domain of human Tyk2 (setting [2]) were 100 to 1000 nM and at most 10 nM, respectively.
On the same counts, the results for `COC1CC(COc2cnc(NC(C)=O)cc2Nc2cc(C)nc(C(C)(F)F)n2)C1` (centres unmarked) [Example 40, N-(4-((2-(1,1-difluoroethyl)-6-methylpyrimidin-4-yl)amino)-5-((3-methoxycyclobutyl)methoxy)pyridin-2-yl)acetamide] are 10 to 100 nM and at most 10 nM.
In the same order, the values of `CC(=O)Nc1cc(Nc2cc(C)nc(C(C)(F)F)n2)c(C)cn1` [Example 41, N-(4-((2-(1,1-difluoroethyl)-6-methylpyrimidin-4-yl)amino)-5-methylpyridin-2-yl)acetamide] are 100 to 1000 nM and 10 to 100 nM.
For `CCc1cnc(NC(C)=O)cc1Nc1cc(C)nc(C(C)(F)F)n1` [Example 42, N-(4-((2-(1,1-difluoroethyl)-6-methylpyrimidin-4-yl)amino)-5-ethylpyridin-2-yl)acetamide], the IC50 on Tyk2 is at least 1000 nM; on JH2 domain of human Tyk2 (setting [2]), 10 to 100 nM.
With `CCCc1cnc(NC(C)=O)cc1Nc1cc(C)nc(C(C)(F)F)n1` [Example 43, N-(4-((2-(1,1-difluoroethyl)-6-methylpyrimidin-4-yl)amino)-5-propylpyridin-2-yl)acetamide], the IC50 against Tyk2 is at least 1000 nM; at JH2 domain of human Tyk2 (setting [2]), 10 to 100 nM.
On to `CC(=O)Nc1cc(Nc2cc(C)nc(C(C)(F)F)n2)c(OC2CC2)cn1` [Example 45, N-(5-cyclopropoxy-4-((2-(1,1-difluoroethyl)-6-methylpyrimidin-4-yl)amino)pyridin-2-yl)acetamide], for which the results for the IC50 on Tyk2 and at JH2 domain of human Tyk2 (setting [2]) were 10 to 100 nM and at most 10 nM, respectively.
`COCc1cnc(NC(C)=O)cc1Nc1cc(C)nc(C(C)(F)F)n1` [Example 47, N-(4-((2-(1,1-difluoroethyl)-6-methylpyrimidin-4-yl)amino)-5-(methoxymethyl)pyridin-2-yl)acetamide]: the IC50 was at least 1000 nM on Tyk2 and 10 to 100 nM on JH2 domain of human Tyk2 (setting [2]).
For `COCc1cnc(NC(C)=O)cc1Nc1ccc(-c2ccn(C)n2)c(OC)n1` [Example 48, N-(4-((6-methoxy-5-(1-methyl-1H-pyrazol-3-yl)pyridin-2-yl)amino)-5-(methoxymethyl)pyridin-2-yl)acetamide], the 50% inhibitory concentration (IC50) was at least 1000 nM against Tyk2 and 100 to 1000 nM at JH2 domain of human Tyk2 (setting [2]).
Consider `CCOc1cnc(NC(C)=O)cc1Nc1cc(C(C)C)nc(C(C)(F)F)n1` [Example 51, N-(4-((2-(1,1-difluoroethyl)-6-isopropylpyrimidin-4-yl)amino)-5-ethoxypyridin-2-yl)acetamide], for which the figures for the IC50 on Tyk2 and on JH2 domain of human Tyk2 (setting [2]) were 10 to 100 nM and at most 10 nM, respectively.
